Where “and” joins values, the source holds several entries; their conditions need not be identical. Identical values can stand only once. Like-named read-outs stand apart in the source and are kept apart here.
Key:
[1] = test system: L-type voltage gated calcium channels; settings: Hupe, et al.; cited from earlier work
[2] = test system: OVCAR3 cells; assay: Oral treatment of intraperitoneal xenografts; format: in vivo, nude mice
[3] = oral, nude mice; cited from earlier work
[4] = test system: A2058 or 5R cells; assay: Cell spreading; format: cell-based
Method: (§1) Cells were preincubated with compound 1 (0.03-10 μg/mL) for periods of 2 to 48 hr prior to the adhesion assay. In addition, compound 1 remained present during the assay. […] Maximal inhibition of adhesion was observed following overnight exposure of the cells to compound 1.

[5] = test system: A2058 and 5R cells; assay: Reversibility of inhibition of tumor cell adhesion; format: cell-based; settings: for activity at 1 µg/mL / activity at 5 µg/mL: Homo sapiens, read-out: Adhesion (% of control)
Method: (§2) An adhesion assay was developed using tissue culture plastic petri dishes as the substrate. Aliquots of cells treated similarly to those in the cell motility assay were plated in triplicate onto the dishes and incubated for 90 rain at 37° C. Cells which were either poorly adherent or nonadherent were gently washed off with PBS. The remaining cells were stained with Diff Quik™ (from Baxter Scientific Products, McGaw Park. Ill., USA). Adherence was quantitated using laser densitometry and values were calculated as a percentage of the control adherence.
As with cell motility, the effect of compound 1 on cell adhesion is reversible. A2058 and 5R cells were treated as above for testing the reversibility of cell motility. The resulting "treated" cells (±), "washout" cells (±), and "control" cells were then subjected to the adhesion assay.

[6] = test system: CHOm5 cells; assay: Carbachol-stimulated arachidonic acid release; format: cell-based, Chinese hamster
From the text: This example illustrates the effect of selected compounds on the release of arachidonic acid from carbachol-stimulated CHOm5 cells. Carbachol is a muscarinic agonist which in the muscarinic receptor transfected CHO cells stimulates the activation of phospholipase A2, resulting in arachidonic acid release and metabolism. Downstream metabolites of arachidonic acid, prostaglandins and leukotrienes are also second messengers.
The effect of compound 1 on arachidonic acid release from CHOm5 cells was determined by incubating the cells to isotopic equilibrium with labelled arachidonic acid, then washing the cells twice with 1 mL of serum-free media supplemented with 20 mM HEPES and 0.2% bovine serum albumin (fatty acid free) to trap the unincorporated labelled arachidonic acid, and then simultaneously adding carbachol (100 μM) and increasing concentrations of 1. After 15 min, the reaction was stopped by removing the incubation media which was then centrifuged at 10,000×g to eliminate any nonadherent cells.

[7] = test system: T-type voltage gated calcium channels; settings: Hupe, et al.; cited from earlier work
[8] = test system: A2058 cells; assay: Cell adhesion to tissue culture plastic; format: cell-based, human; settings: 0.03-10 μg/mL, 2 to 48 hr preincubation
Method: as §2, §1

[9] = test system: cell adhesion to laminin; assay: Cell adhesion to laminin; format: cell-based; settings: data not shown
Method: as §1

[10] = Cell viability by trypan blue exclusion; format: cell-based; settings: a2058 and 5r cells; average
Method: (§3) Compound 1 was preincubated with the cells for various periods of time, added at the start of the assay, or added later. Additionally, compound 1 remained present during the motility assay. The cells were assayed for their motile response to AMF. AMF stimulates random and directed locomotion of 5R ras-transfected rat embryo fibroblasts and A2058 human melanoma cells. […] Cell viability determined by trypan blue exclusion averaged greater than 96%. Cells exposed to various concentrations of compound 1 were tested for their response to AMF vs. control. Percent stimulated motility (in densitometer units) is defined as: […]

[11] = Plasma levels in patients of phase I clinical study; format: in vivo; settings: human, po
From the text: Seven patients with solid tumor metastasis are undergoing treatment via oral administration of compound 1 under the FDA approved phase I clinical study. Table J provides data on the patients' response to this treatment. PT# is patient number. Response is the sum of the products of bidirectional measurements. No measurement means that while the disease was evaluable, it was not measureable. The concentration of the drug in the blood of the patients is well within the range which inhibits signal transduction in vitro and which inhibits tumor growth in vitro and in animals.
The concentration of compound 1 in the blood of patient #1 was from 1-2 μg/mL, while that of the other three patients was >3 μg/mL (>7 μM). These concentrations are well within the range which inhibit signal transduction in vitro and which inhibit tumor growth in animals.

[12] = test system: signal transduction pathways (calcium influx, release of arachidonic acid, generation of inositol phosphates); settings: cited from earlier work
[13] = test system: cell adhesion to fibronectin; assay: Cell adhesion to fibronectin; format: cell-based; settings: data not shown
Method: as §1

[14] = test system: 5R ras-transfected rat embryo fibroblasts; assay: AMF-stimulated cell motility; format: cell-based
Method: The cell motility assay has been described. See, Stracke et al., Biochem. Biophys. Res. Comm., 146:339-345 (1987). Cells from the A2058 human melanoma line which was maintained in subconfluent culture were harvested with trypsin-EDTA, and were allowed to recover for 1 hr at room temperature. Cells from the 5R H-ras transformed (diploid) rat embryo fibroblast line were harvested with 2 mM EDTA in PBS without divalent cations. Cells were resuspended in serum-free media containing 0.1% BSA. This DMEM/0.1% BSA was used as the control for all subsequent assays. The assays were performed in triplicate using a 48-well chemotaxis chamber with 8μ Nucleopore, type IV collagen-coated filters. The chambers were incubated at 37° C. for 4 hr, stained and placed onto glass slides with the original cell side up so that the cell pellet could be wiped from the surface. Cells that had migrated through the pores were trapped between glass and membrane and could be quantitated by laser densitometry.
as §3
(AMF stimulated-control)Compound 1 /(AMF stimulated-control)untreated

[15] = Side effects in phase I clinical study; format: in vivo, human; settings: oral, to date
From the text: Seven patients with solid tumor metastasis are undergoing treatment via oral administration of compound 1 under the FDA approved phase I clinical study. […] PT# is patient number. Response is the sum of the products of bidirectional measurements.

NC(=O)c1nnn(Cc2cc(Cl)c(C(=O)c3ccc(Cl)cc3)c(Cl)c2)c1N [Compound 1]
inhibition of L-type voltage gated calcium channels [1]: inhibit
time to development of ascites ([2]; 100 mg/kg daily oral): Statistically significant differences
tumor necrosis and pulmonary micrometastases (histology) ([2]; 100 mg/kg daily oral): induced tumor necrosis and inhibition of pulmonary micrometastases
volume of ascites at necropsy ([2]; 100 mg/kg daily oral): Statistically significant differences
progression of OVCAR3 xenografts ([2]; FIG. 16B, 100 mg/kg by gavage): inhibits progression of OVCAR3 xenografts
toxicity to normal tissues including connective tissue, mucosal surfaces, and bone marrow [3]: no toxicity to normal tissues
cell spreading [4]: not markedly decreased
reversibility of adhesion inhibition [5]: reversible
activity at 1 µg/mL ([5]; A2058, 1 μg/mL (+/-)): 106%
activity at 1 µg/mL ([5]; A2058, 1 μg/mL (-/+)): 33%
activity at 5 µg/mL ([5]; A2058, 5 μg/mL (+/-)): 96%
activity at 5 µg/mL ([5]; A2058, 5 μg/mL (-/+)): 37%
IC50 ([6]; Cricetulus griseus, 0.25 h, carbachol 100 μM, 15 min): 5.2 ± 0.8 µM
Arachidonic Acid Release (% of Control) ([6]; Table K): 50.9 ± 9 % of Control
inhibition of T-type voltage gated calcium channels [7]: inhibit
inhibition of cell adhesion [8]: dose-dependent inhibition of cell adhesion
cell adhesion to laminin [9]: decreased cell adhesion
viability [10]: > 96%
Cmax ([11]; 100 mg/m^2, patient 1, melanoma, 100 mg/m^2 qod, oral, read-out: PEAK LEVEL): 1250 ng/mL
Cmax ([11]; 100 mg/m^2, patient 2, colon, 100 mg/m^2 qd, oral, read-out: PEAK LEVEL): 3610 ng/mL
Cmax ([11]; 100 mg/m^2, patient 3, colon, 100 mg/m^2 qd, oral, read-out: PEAK LEVEL): 3530 ng/mL
Cmax ([11]; 100 mg/m^2, patient 4, ovary, 100 mg/m^2 qd, oral, read-out: PEAK LEVEL): 3080 ng/mL
Cmax ([11]; 200 mg/m^2, patient 5, lung, 200 mg/m^2 qod, oral, read-out: PEAK LEVEL): 1770 ng/mL
Cmax ([11]; 200 mg/m^2, patient 6, carcinoid, 200 mg/m^2 qod, oral, read-out: PEAK LEVEL): 1340 ng/mL
Cmax ([11]; 200 mg/m^2, patient 7, colon, 200 mg/m^2 qod, oral, read-out: PEAK LEVEL): 2830 ng/mL
Cmax ([11]; other three patients of FIG. 19, read-out: concentration in the blood (peak/steady state)): > 3000 ng/mL and > 7 µM
Cmax ([11]; patient #1, read-out: concentration in the blood (peak/steady state)): 1000 to 2000 ng/mL
inhibition of selected signal transduction pathways [12]: novel inhibitor of selected signal transduction pathways
cell adhesion to fibronectin [13]: decreased cell adhesion
inhibition of AMF-stimulated tumor cell motility ([14]; 0.03-10 μg/ml): inhibited AMF-stimulated tumor cell motility in a dose dependent manner
decrease in stimulated motility ([14]; overnight preincubation, AMF stimulation): up to 55%
abnormalities of blood cellular composition [15]: no abnormalities of blood cellular composition
bone marrow depression (white cell counts) [15]: do not show any bone marrow depression
liver or kidney function abnormalities [15]: do not show any liver or kidney function abnormalities
neurological toxicity, hair loss or electrolyte imbalances [15]: no neurological toxicity, hair loss or electrolyte imbalances

Source: US5482954A, “Signal transduction inhibitor triazole and diazole compounds” (priority 1994, dated 1996)
